Data reported in BigSolDB 2.1.

COc1ccc(C(=O)O)cc1
solubility (mole fraction)
Details | 283.15 K | 288.15 K | 293.15 K | 298.15 K | 303.15 K | 308.15 K | 313.15 K | 318.15 K | 323.15 K | 328.15 K
in 2-butanone | 0.0107 | 0.0128 | 0.0149 | 0.0169 | 0.0198 | 0.023 | 0.0266 | 0.0298 | 0.0343 | 0.0394
in THF | 0.0483 | 0.0518 | 0.0562 | 0.0621 | 0.0671 | 0.0731 | 0.078 | 0.085 | 0.0923 | 0.0991
in acetone | 0.0129 | 0.0153 | 0.0173 | 0.0197 | 0.0224 | 0.026 | 0.0298 | 0.032 | 0.0344 | 0.0368
in cyclohexanone | 0.0187 | 0.0203 | 0.022 | 0.025 | 0.0292 | 0.034 | 0.0397 | 0.0449 | 0.0507 | 0.059
in ethyl formate | 0.00442 | 0.00508 | 0.00606 | 0.00738 | 0.00889 | 0.0114 | 0.0135 | 0.0152 | 0.0178 | 0.0195
in ethylene glycol | 0.0022 | 0.00292 | 0.0038 | 0.0046 | 0.00546 | 0.00649 | 0.00768 | 0.00885 | 0.0105 | 0.0126
in isobutanol | 0.00435 | 0.00548 | 0.00691 | 0.00889 | 0.0116 | 0.0143 | 0.0178 | 0.0206 | 0.025 | 0.0288
in isopropyl acetate | 0.00637 | 0.00732 | 0.00833 | 0.00955 | 0.0116 | 0.0135 | 0.0156 | 0.0179 | 0.021 | 0.0246
in n-butanol | 0.00647 | 0.0077 | 0.00946 | 0.011 | 0.0133 | 0.0158 | 0.0186 | 0.0218 | 0.0255 | 0.0302
in n-butyl acetate | 0.00629 | 0.00719 | 0.00867 | 0.0106 | 0.0118 | 0.0136 | 0.0158 | 0.0178 | 0.021 | 0.0244
in n-pentanol | 0.00696 | 0.00853 | 0.0101 | 0.012 | 0.014 | 0.0169 | 0.0197 | 0.0234 | 0.0272 | 0.0313
in n-propyl acetate | 0.00732 | 0.00802 | 0.0089 | 0.0103 | 0.0118 | 0.0136 | 0.0155 | 0.0182 | 0.0209 | 0.0237
in sec-butanol | 0.00623 | 0.00789 | 0.0101 | 0.0121 | 0.0149 | 0.0182 | 0.0219 | 0.0274 | 0.0317 | 0.0362
in toluene | 0.00062 | 0.00086 | 0.0012 | 0.00152 | 0.00196 | 0.00252 | 0.00301 | 0.00369 | 0.0044 | 0.0054
